Source: BindingDB's records for doi:10.1074/jbc.M114.574061 (AstraZeneca R&D Boston, 2014)

Experiments:
Assay in all cases: Aminoacylation Assay
Conditions in all cases: pH 8
[1] = biological target: Phenylalanine--tRNA ligase alpha/beta subunit (Pseudomonas aeruginosa (strain ATCC 15692 / PAO1 / 1C / PRS 101 / LMG12228), UniProt A0A8B5A132+Q9I0A4)
Experimental: (§1) Compounds were solubilized in DMSO. Serial 2-fold dilutions covering two concentration ranges, 10 mM to 19.5 μM and 100 μM to 195 nM, were prepared. 0.6 μl/well of the diluted compound solutions (50× the final assay concentration) were added to white 384-well polystyrene assay plates (Thermo Fisher Scientific/Matrix Technology Corp., Hudson, NH). Uninhibited control wells (MAX)received 2 μl of 30% (v/v) DMSO. Baseline wells (MIN) received 2 μl of a solution containing 30% (v/v)DMSO and 15 mM L-phenylalanine (Sigma-Aldrich). Assays were performed in a buffer consisting of 50 mM Tris-HCl (pH 8.0), 50 mM NH4Cl, 10 mM MgCl2, 2 mM DTT, 0.005% Tween 20 (Surfact-Amps-20, Thermo Fisher Scientific/Pierce Protein Research products, Suwanee, GA), and 0.1 mM EDTA-NaOH (pH 8.0). Compounds were preincubated with 15 μl/well of either 2 nM E. coli PheRS, 2 nM H. influenzae PheRS, or 0.8 nM P. aeruginosa PheRS in buffer for 30 min at 2× final assay concentrations. The reactions were initiated with 15 μl/well of a 2× substrate solution in buffer containing 2 μM E. coli phenylalanine tRNA (Sigma-Aldrich), 100 μM ATP, and 2 μM [3H]Phe with a specific radioactivity of 6.3 Ci/mmol (PerkinElmer Life Sciences). The reactions were quenched after 30 min with 15 μl/well of a solution containing 4 mg/ml PVT/PEI/WGA type A SPA beads (PerkinElmer Life Sciences), 262 mM sodium citrate (pH 2.0), and 150 mM NaCl. The plates were sealed with transparent film (PerkinElmer Life Sciences). The beads were allowed to settle for a minimum of 2 h before scintillation counting with a Top-Count plate reader (PerkinElmer Life Sciences). [3H] counts (CPM) for aminoacylated tRNA were measured for 1 min/well.

[2] = biological target: Phenylalanine--tRNA ligase alpha/beta subunit (Escherichia coli (strain K12), UniProt P07395+P08312)
Experimental: as §1

[3] = biological target: Phenylalanine--tRNA ligase alpha/beta subunit (Pseudomonas aeruginosa, UniProt Q9I0A3+Q9I0A4)
Experimental: as §1

Phenylalanine--tRNA ligase alpha/beta subunit (Escherichia coli (strain K12), UniProt P07395+P08312), sequence (P08312 whole entry): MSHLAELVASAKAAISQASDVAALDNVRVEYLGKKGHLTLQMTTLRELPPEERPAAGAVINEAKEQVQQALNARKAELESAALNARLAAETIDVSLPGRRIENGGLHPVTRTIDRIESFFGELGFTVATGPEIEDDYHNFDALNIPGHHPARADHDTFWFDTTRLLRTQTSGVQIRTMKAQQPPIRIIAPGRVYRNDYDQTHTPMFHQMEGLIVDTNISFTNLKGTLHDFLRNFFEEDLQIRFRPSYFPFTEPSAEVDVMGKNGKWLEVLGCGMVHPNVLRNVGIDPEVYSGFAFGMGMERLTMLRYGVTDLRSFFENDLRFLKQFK
Phenylalanine--tRNA ligase alpha/beta subunit (Escherichia coli (strain K12), UniProt P07395+P08312), sequence (P07395 whole entry): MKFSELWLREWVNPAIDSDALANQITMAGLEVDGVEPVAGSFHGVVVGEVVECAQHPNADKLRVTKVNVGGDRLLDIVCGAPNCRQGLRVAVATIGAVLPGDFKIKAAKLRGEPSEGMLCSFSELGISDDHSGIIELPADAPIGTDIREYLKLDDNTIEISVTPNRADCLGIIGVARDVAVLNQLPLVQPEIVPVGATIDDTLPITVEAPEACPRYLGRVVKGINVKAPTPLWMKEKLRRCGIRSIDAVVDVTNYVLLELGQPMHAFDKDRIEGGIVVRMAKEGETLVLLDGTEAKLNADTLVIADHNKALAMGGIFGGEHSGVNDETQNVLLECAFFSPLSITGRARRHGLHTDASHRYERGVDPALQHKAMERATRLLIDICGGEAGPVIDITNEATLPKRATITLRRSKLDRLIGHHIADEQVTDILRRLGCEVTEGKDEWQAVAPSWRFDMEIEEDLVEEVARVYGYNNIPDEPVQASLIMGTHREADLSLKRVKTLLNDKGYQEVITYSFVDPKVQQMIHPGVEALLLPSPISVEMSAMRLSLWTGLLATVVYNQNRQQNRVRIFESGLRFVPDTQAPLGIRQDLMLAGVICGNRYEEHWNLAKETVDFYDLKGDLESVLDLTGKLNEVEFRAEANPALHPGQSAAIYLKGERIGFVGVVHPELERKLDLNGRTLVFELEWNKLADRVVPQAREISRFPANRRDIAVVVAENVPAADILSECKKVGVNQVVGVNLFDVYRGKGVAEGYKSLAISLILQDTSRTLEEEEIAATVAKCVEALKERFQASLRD
Phenylalanine--tRNA ligase alpha/beta subunit (Pseudomonas aeruginosa (strain ATCC 15692 / PAO1 / 1C / PRS 101 / LMG12228), UniProt A0A8B5A132+Q9I0A4), sequence (A0A8B5A132 whole entry): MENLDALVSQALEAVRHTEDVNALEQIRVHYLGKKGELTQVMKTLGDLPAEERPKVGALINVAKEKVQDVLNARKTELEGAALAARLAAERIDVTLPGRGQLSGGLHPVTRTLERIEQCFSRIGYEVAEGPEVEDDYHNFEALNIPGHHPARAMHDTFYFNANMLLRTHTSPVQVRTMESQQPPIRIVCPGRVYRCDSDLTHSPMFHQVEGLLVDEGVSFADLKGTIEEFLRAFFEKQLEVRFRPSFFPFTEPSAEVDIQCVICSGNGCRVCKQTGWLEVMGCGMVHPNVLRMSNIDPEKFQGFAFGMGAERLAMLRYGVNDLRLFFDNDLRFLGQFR
Phenylalanine--tRNA ligase alpha/beta subunit (Pseudomonas aeruginosa (strain ATCC 15692 / PAO1 / 1C / PRS 101 / LMG12228), UniProt A0A8B5A132+Q9I0A4), sequence (Q9I0A4 whole entry): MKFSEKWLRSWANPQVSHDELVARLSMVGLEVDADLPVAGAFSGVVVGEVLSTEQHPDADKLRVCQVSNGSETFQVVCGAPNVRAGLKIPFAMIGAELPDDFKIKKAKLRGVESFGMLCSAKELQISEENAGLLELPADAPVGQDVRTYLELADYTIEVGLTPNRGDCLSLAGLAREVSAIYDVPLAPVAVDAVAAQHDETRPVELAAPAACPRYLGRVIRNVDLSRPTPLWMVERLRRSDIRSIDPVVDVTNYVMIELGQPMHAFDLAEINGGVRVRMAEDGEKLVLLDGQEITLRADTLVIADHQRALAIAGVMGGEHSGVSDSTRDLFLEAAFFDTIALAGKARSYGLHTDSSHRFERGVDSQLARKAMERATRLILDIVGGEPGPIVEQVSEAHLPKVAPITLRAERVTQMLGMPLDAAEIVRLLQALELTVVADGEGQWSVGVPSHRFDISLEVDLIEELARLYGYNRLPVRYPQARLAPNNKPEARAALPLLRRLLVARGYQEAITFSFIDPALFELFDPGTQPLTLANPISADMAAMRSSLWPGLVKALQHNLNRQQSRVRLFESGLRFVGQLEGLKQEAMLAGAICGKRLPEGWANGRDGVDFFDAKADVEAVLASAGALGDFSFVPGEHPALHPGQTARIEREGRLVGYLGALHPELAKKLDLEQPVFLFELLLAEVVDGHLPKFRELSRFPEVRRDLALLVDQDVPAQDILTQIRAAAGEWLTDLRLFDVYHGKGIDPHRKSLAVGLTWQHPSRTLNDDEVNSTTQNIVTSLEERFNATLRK
Phenylalanine--tRNA ligase alpha/beta subunit (Pseudomonas aeruginosa, UniProt Q9I0A3+Q9I0A4), sequence (Q9I0A3 whole entry): as the sequence (A0A8B5A132 whole entry) above
Phenylalanine--tRNA ligase alpha/beta subunit (Pseudomonas aeruginosa, UniProt Q9I0A3+Q9I0A4), sequence (Q9I0A4 whole entry): as the sequence (Q9I0A4 whole entry) above

Structure (SMILES) | IC50 [1] [nM] | IC50 [2] [nM] | IC50 [3] [nM]
O=C(Nc1cccc(S(=O)(=O)N2CCN(c3ccccn3)CC2)c1)Nc1nccs1 [1-(3-(4-(Pyridin-2-yl)piperazin-1-ylsulfonyl)phenyl)-3-(thiazol-2-yl)urea (1a)] | 22 | 2.7 | –
CNC(=O)COc1cccc(Nc2cc(Cl)ccn2)c1 [2-(3-(4-Chloropyridin-2-ylamino)phenoxy)-N-methylacetamide (2a)] | 82000 | 1400 | –
CNC(=O)COc1cccc(Nc2cc(C#N)ccn2)c1 [2-(3-(4-Cyanopyridin-2-ylamino)phenoxy)-N-methylacetamide (2b)] | 41000 | 560 | –
COc1cccc(-c2ncc(C(F)(F)F)[nH]2)c1 [2-(3-methoxyphenyl)-5-(trifluoromethyl)-1H-imidazole (3d)] | – | 16000 | > 200000
NS(=O)(=O)CCNC(=O)c1csc(COc2ccc(Cl)cc2)n1 [2-((4-Chlorophenoxy)methyl)-N-(2-sulfamoylethyl)thiazole-4-carboxamide (4c)] | 26000 | 190 | –
N#CCNC(=O)c1csc(COc2ccc(Cl)cc2)n1 [2-((4-Chlorophenoxy)methyl)-N-(cyanomethyl)thiazole-4-carboxamide (4b)] | 13000 | 100 | –
O=C(COc1cccc(Nc2cc(Cl)ccn2)c1)NC1CCS(=O)(=O)C1 (stereo unspecified) [2-[3-[(4-Chloro-2-pyridyl)amino]phenoxy]-N-(1,1-dioxothiolan-3-yl)acetamide (2c)] | 34000 | 100 | –
COc1cccc(-c2cc(C(F)(F)F)n[nH]2)c1 [5-(3-Methoxyphenyl)-3-(trifluoromethyl)-1H-pyrazole (3a)] | – | 60 | 10000
CCOC(=O)COc1cccc(-c2cc(C(F)F)n[nH]2)c1 [Ethyl 2-(3-(3-(difluoromethyl)-1H-pyrazol-5-yl)phenoxy)acetate (3c)] | – | 1000 | 59000
CCOC(=O)COc1cccc(-c2cc(C(F)(F)F)[nH]n2)c1 [Ethyl 2-(3-(5-(trifluoromethyl)-1H-pyrazol-3-yl)phenoxy)acetate (3b)] | – | 80 | 11000
Cc1ccc(OCc2nc(C(=O)NC3CCS(=O)(=O)C3)cs2)cc1 (stereo unspecified) [N-(1,1-dioxothiolan-3-yl)-2-[(4-methylphenoxy)methyl]thiazole-4-carboxamide (4a)] | 80000 | 1400 | –
CS(=O)(=O)C1(CCNC(=O)COc2cccc(-c3cc(C(F)(F)F)[nH]n3)c2)CC1 [N-(2-(1-(methylsulfonyl)cyclopropyl)ethyl)-2-(3-(5-(trifluoromethyl)-1H-pyrazol-3-yl)phenoxy)acetamide (3e)] | – | 70 | 4200
O=C(Nc1cccc(S(=O)(=O)NCCc2c[nH]c3ccccc23)c1)Nc1nccs1 [N-(2-(1H-indol-3-yl)ethyl)-3-(3-thiazol-2-ylureido)benzenesulfonamide (1b)] | – | 2.2 | 13
